From article PMC12040169 (PLOS Biology, 2025)

Assay: in vitro
Conditions: human, hela cells, % viability
`Cc1ccc2c(c1)cc(C(=O)N1CCC(C(=O)NCCc3ccc(Cl)cc3)C1)n2C` (stereo not drawn) [CBK285926] showed a viability at 28.5 h, 10 µM of 103%. With `Cn1c(=O)n(C)c2cc(CNCc3ccc(C(=O)O)cc3)ccc21` [CBK286538] the viability at 28.5 h, 10 µM was 95.8%. `O=C(NCc1ccc(OC2CCNCC2)cc1)c1coc2c1C(=O)CCC2` [CBK038944T] showed a viability at 28.5 h, 10 µM of 101%. With `O=C(COc1cccc(Cl)c1)NCCc1ccc(S(=O)(=O)NC(=O)NC2CCCCC2)cc1` [CBK011798] the viability at 28.5 h, 10 µM was 93.4%. With `Cc1cc(C)nc(NS(=O)(=O)c2ccc(Nc3ccc4nonc4c3[N+](=O)[O-])cc2)n1` [CBK261444] the viability at 28.5 h, 10 µM was 103%. `CCN(CC)C(=O)CN1C(=O)[C@H]2CCCN2C(=O)c2ccccc21` [CBK286319] gave a viability at 28.5 h, 10 µM of 95.5%. In the case of `Cc1cc2nc(-c3cc(NC(=O)c4cccc([N+](=O)[O-])c4)ccc3O)oc2cc1C` [CBK262855], the viability at 28.5 h, 10 µM is reported as 103%. Work on `COC(=O)c1ccc(CO)nc1` [CBK261376C] yielded a viability at 28.5 h, 10 µM of 104%. Molecule `N#CCCCN1CCC(Oc2cncc(OCc3cccnc3)n2)C1` (stereo not drawn) [CBK084466] has a viability at 28.5 h, 10 µM of 105%. Molecule `CSc1ncc(Cl)c(C(=O)Nc2nnc(SC/C=C/c3ccccc3)s2)n1` [CBK268691] has a viability at 28.5 h, 10 µM of 93.5%. For `CCC12CN3CC(CC)(CN(C1)C3c1ccc([N+](=O)[O-])cc1)C2=O` (stereo not drawn) [CBK263689], the viability at 28.5 h, 10 µM was 108%. Work on `O=C(/C=C/c1cccnc1)Nc1cccc(N2CCNCC2)c1` [CBK034128T] yielded a viability at 28.5 h, 10 µM of 109%. In the case of `CSc1ccc(-n2ncc(-c3ccc(Cl)cc3)n2)cc1` [CBK112782], the viability at 28.5 h, 10 µM is reported as 84%. In the case of `Cc1ccc(S(=O)(=O)Nc2ccsc2C(=O)N2CCOCC2)cc1[N+](=O)[O-]` [CBK004612], the viability at 28.5 h, 10 µM is reported as 81.7%. In the case of `COc1cccc(NC(=O)N[C@H]2C[C@@H](c3nc(-c4ccccn4)no3)N(C)C2)c1` [CBK288853], the viability at 28.5 h, 10 µM is reported as 108%. With `O=C(CC(CN1CCN(c2cccc(Cl)c2)CC1)C(=O)O)NCc1ccccc1` (stereo not drawn) [CBK286787] the viability at 28.5 h, 10 µM was 100%. For `Nc1ccccc1Sc1cc(C(F)(F)F)ccn1` [CBK093761], the viability at 28.5 h, 10 µM was 91.4%. With `COc1cccc(CNc2nccnc2-c2ccoc2)c1OC` [CBK036782] the viability at 28.5 h, 10 µM was 105%. `Cc1cc(C(=O)CSc2nnc(C3CC3)[nH]2)c(C)n1-c1cccc(C(F)(F)F)c1` [CBK295310] showed a viability at 28.5 h, 10 µM of 80.6%. Work on `N#CCCCN1CCN(c2nccnc2OCCN2C(=O)CCC2=O)CC1` [CBK084299] yielded a viability at 28.5 h, 10 µM of 102%. For `CCN(CC)C(=O)CN1CCN(c2nccnc2Oc2ccc(F)cc2)CC1` [CBK083020T], the viability at 28.5 h, 10 µM was 87.9%. With `COc1cccc(CNC(=O)Cn2nnc(-c3ccc(CN4CCC(C)CC4)cc3)n2)c1OC` [CBK144161C] the viability at 28.5 h, 10 µM was 94.1%. In the case of `CC1CCN(C(=O)COC(=O)c2cnc(-c3ccncc3)s2)CC1` [CBK306255], the viability at 28.5 h, 10 µM is reported as 94.6%. `Cc1ccc(C(=O)NC2CCCCCC2)cc1C` [CBK083665] showed a viability at 28.5 h, 10 µM of 86%. `COc1ccc2c(c1)C1(CC(=O)N(CC3CCCCC3)C1=O)C(=O)N2C` (stereo not drawn) [CBK075201] gave a viability at 28.5 h, 10 µM of 100%. Work on `Cc1cc(NCCc2ccc(=O)[nH]c2)nc(-c2cc(F)c(F)cc2F)n1` [CBK144636C] yielded a viability at 28.5 h, 10 µM of 99.3%. Work on `CC(C)c1ccc(N2C(=O)N[C@@H]3CCN(C(=O)c4cccs4)[C@@H]3C2=O)cc1` [CBK289286] yielded a viability at 28.5 h, 10 µM of 90.7%. In the case of `COCCCn1c(=O)[nH]c2ncc(-c3cccc(NC(C)=O)c3)nc21` [CBK064433], the viability at 28.5 h, 10 µM is reported as 97.5%. `NC(=O)Cn1c(=O)n(CCc2ccccc2)c(=O)c2c3c(sc21)CCCC3` [CBK267665] gave a viability at 28.5 h, 10 µM of 103%. `Clc1cccc(-c2cn3ccnc3c(NCc3cccnc3)n2)c1` [CBK066237] gave a viability at 28.5 h, 10 µM of 104%. Work on `COc1ccc(-c2cc(C(=O)NCCc3ccccn3)cnc2-c2cccc(C)c2)cc1` [CBK036730] yielded a viability at 28.5 h, 10 µM of 93.7%. For `CN(C)CCNC(=O)c1cc(-c2ccncc2)nc2ccc(Br)cc12` [CBK267728], the viability at 28.5 h, 10 µM was 103%. For `Nc1ccc(-c2nc(-c3ccccc3)c3cc(-c4ccc5nc(-c6ccc(N)cc6)nc(-c6ccccc6)c5c4)ccc3n2)cc1` [CBK261152], the viability at 28.5 h, 10 µM was 107%. Molecule `O=C(O)C1CCCCC1C(=O)NCCN1CCCCC1` (stereo not drawn) [CBK287031] has a viability at 28.5 h, 10 µM of 91.4%. `O=C(NCN1CCN(c2ccc([N+](=O)[O-])cc2)CC1)c1cccnc1` [CBK264909] gave a viability at 28.5 h, 10 µM of 106%. Molecule `FC(F)(F)c1ccc(Sc2cccs2)nc1` [CBK115236] has a viability at 28.5 h, 10 µM of 92.5%. With `Cc1c(C(=O)O)[nH]c2c1C(=O)CCC2` [CBK015548] the viability at 28.5 h, 10 µM was 97.5%. In the case of `Cn1cccc1C(=O)OCC(=O)N1CCCCC1` [CBK305903], the viability at 28.5 h, 10 µM is reported as 99.5%. With `c1ccc(N2CCN(c3cc(-c4cc5ccccc5s4)ncn3)CC2)nc1` [CBK091084] the viability at 28.5 h, 10 µM was 102%. `COc1cncc(-c2ccc(Nc3ccc(OC)nc3)nc2)c1` [CBK037773] showed a viability at 28.5 h, 10 µM of 103%. With `CN(C)CCNC1CS(=O)(=O)CC1O` (stereo not drawn) [CBK059025] the viability at 28.5 h, 10 µM was 84.8%. `COC(=O)c1sc2[nH]c(CN(C)Cc3ccco3)nc(=O)c2c1C` [CBK306047] showed a viability at 28.5 h, 10 µM of 82.6%. Molecule `Cc1cc(C)nc(SCCN2CCOCC2)n1` [CBK261769C] has a viability at 28.5 h, 10 µM of 93.8%. With `CC[C@H]1CCCCN1C(=O)c1sc2ncccc2c1Cl` [CBK092276] the viability at 28.5 h, 10 µM was 104%. Work on `O=C(N/N=C/c1ccccn1)c1cc(-c2ccc3ccccc3c2)[nH]n1` [CBK262886] yielded a viability at 28.5 h, 10 µM of 93.9%. `CC(C)Nc1cccnc1N(C)C1CCN(C(=O)c2cc(Br)c[nH]2)CC1` [CBK016797] showed a viability at 28.5 h, 10 µM of 105%. Work on `O=C(O)c1ccc(S(=O)(=O)c2ccc(Oc3ccc4c(c3)C(=O)N(c3cccc(C(=O)O)c3)C4=O)cc2)cc1` [CBK263608] yielded a viability at 28.5 h, 10 µM of 96.7%. `CCNc1cncc(-c2ccc(F)c(Cl)c2)n1` [CBK065322] showed a viability at 28.5 h, 10 µM of 101%. For `COc1ccc(S(=O)(=O)N(CC(=O)Nc2ccc(F)cc2)c2ccccc2)cc1` [CBK264141], the viability at 28.5 h, 10 µM was 96.5%. `CCCS(=O)(=O)NC1CC(C)(C)Cc2c1cnn2-c1ccccc1` (stereo not drawn) [CBK307265] gave a viability at 28.5 h, 10 µM of 98.1%. For `Cc1ccc(C(=O)NNC(=S)Nc2ccc(S(N)(=O)=O)cc2)cc1[N+](=O)[O-]` [CBK266866], the viability at 28.5 h, 10 µM was 95.6%. Work on `O=C(NCc1csc2c1CCCC2)N1CCC(CO)CC1` [CBK307476] yielded a viability at 28.5 h, 10 µM of 98.9%. In the case of `CCNC(=O)c1cnc(-c2ccc(Cl)cc2)c(-c2cccnc2)c1` [CBK037584], the viability at 28.5 h, 10 µM is reported as 103%. Molecule `CCCC(=O)NCc1ccc(-c2cc(CN(C)C)n(C)n2)cc1` [CBK282007] has a viability at 28.5 h, 10 µM of 98.4%. `O=S(=O)(c1ccc(C(F)(F)F)cc1Cl)N1CCCN(Cc2ccc(F)cc2F)CC1` [CBK062946] gave a viability at 28.5 h, 10 µM of 91.8%. Molecule `Cc1csc(NC(=O)c2c(C)c(C)n[nH]c2=O)n1` [CBK297759] has a viability at 28.5 h, 10 µM of 84.4%. `Nc1cccc(-c2cc(Nc3ccc(Cl)cc3)ncn2)c1` [CBK090886] gave a viability at 28.5 h, 10 µM of 91.7%. `CCOc1cc2c(cc1NS(=O)(=O)c1cc(C(=O)O)ccc1C)OC(C)C2` (stereo not drawn) [CBK296711] gave a viability at 28.5 h, 10 µM of 101%. In the case of `Nc1ccc(-c2nc(NC(=O)c3cccs3)cnc2-c2ccc(F)cc2)cc1` [CBK037597], the viability at 28.5 h, 10 µM is reported as 94.2%. With `COCCNc1nccnc1-c1cccc(C(=O)N2CCN(C)CC2)c1` [CBK036864] the viability at 28.5 h, 10 µM was 99.9%. With `COc1ccc(-c2nc(NC(=O)c3ccc(S(N)(=O)=O)cc3)cnc2-c2cccc(C)c2)cc1` [CBK037559] the viability at 28.5 h, 10 µM was 103%. With `C=CCNc1nccnc1-c1ccc(C(C)=O)s1` [CBK037052] the viability at 28.5 h, 10 µM was 88.8%.

Same assay, conditions: human, hela cells, % viability, bulk resorufin, single well
With `COc1ccc(OC(=O)Nc2nn(Cc3ccc(C#N)cc3)c3ccc(C)cc23)cc1` [CBK048654] the viability at 28.5 h, 10 µM was 74.4%.
